Assay results taken from patent publication US20050228016A1, “TETRAHYDROQUINOLINES FOR MODULATING THE EXPRESSION OF EXOGENOUS GENES VIA AN ECDYSONE RECEPTOR COMPLEX” (priority 2002, published 2005).

Assays:
Gal4DBD/AaEcR (DEF) = target: T1, Gal4DBD/AaEcR (DEF) (Aedes aegypti, UniProt P49880); assay: cell-based; type: cell-based; conditions: for Fold Induction Average, AA_3T3V1 Assay 33 μM: 3T3 cells, 48 h, average of two wells
T1 construct: The wildtype D, E, and F domains from mosquito Aedes aegypti EcR; expressed in transfected cells; host or cells: 3T3 cells
T1 sequence (P28704 286-520 A311G/G315S/G445S/I449V): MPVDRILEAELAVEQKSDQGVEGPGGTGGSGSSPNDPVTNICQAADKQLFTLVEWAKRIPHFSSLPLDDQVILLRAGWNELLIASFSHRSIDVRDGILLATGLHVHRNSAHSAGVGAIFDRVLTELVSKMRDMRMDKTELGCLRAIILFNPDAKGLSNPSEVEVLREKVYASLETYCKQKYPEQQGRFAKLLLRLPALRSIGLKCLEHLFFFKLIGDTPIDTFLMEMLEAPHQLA
T1 sequence (P49880 405-776): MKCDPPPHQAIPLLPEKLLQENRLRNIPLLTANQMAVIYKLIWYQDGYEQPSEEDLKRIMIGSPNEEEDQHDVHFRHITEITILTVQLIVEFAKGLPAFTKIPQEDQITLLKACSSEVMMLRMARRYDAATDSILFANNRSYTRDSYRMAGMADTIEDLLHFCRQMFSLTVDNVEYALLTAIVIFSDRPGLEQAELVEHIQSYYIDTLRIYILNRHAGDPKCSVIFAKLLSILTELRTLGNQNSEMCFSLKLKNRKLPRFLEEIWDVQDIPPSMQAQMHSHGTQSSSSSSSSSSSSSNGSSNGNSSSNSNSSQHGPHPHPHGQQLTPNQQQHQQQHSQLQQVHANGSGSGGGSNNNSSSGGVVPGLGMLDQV
Method in brief: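 Mouse 3T3 cells transiently co-transfected with Gal4DBD/AaEcR (DEF) and pFRLuc (5× GAL4 response element, firefly luciferase reporter). Ligand added in serum medium 4 h after transfection; single-dose testing at 33 μM.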

[1] = target: T2, Bombyx mori EcR (VP16-BmEcR, CVBE) (Bombyx mori, UniProt P49881); assay: Z3 assay (HEK-293 clone Z3 with CVBE and 6x EcRE LacZ, β-galactosidase reporter); type: cell-based; conditions: average of two wells; for Fold Induction Average, Z3V1 Assay 33 μM: 48 h
T2 construct: expressed in transfected cells
T2 sequence (P49881 86-606): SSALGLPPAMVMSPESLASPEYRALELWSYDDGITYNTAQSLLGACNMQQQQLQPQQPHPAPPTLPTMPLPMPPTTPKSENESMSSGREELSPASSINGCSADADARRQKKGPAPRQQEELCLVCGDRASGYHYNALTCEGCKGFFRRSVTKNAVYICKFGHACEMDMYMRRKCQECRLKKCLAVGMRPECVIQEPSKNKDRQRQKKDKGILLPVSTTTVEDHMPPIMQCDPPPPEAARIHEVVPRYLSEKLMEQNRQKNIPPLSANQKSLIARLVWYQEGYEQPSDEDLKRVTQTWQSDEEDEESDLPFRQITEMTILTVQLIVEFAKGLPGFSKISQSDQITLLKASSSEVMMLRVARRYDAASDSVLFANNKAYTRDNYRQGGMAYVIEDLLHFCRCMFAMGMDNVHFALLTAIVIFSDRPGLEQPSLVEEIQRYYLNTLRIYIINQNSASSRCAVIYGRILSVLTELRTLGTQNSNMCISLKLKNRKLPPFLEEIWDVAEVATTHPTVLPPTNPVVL
Description: Dr. F. Gage provided a population of stably transformed cells containing CVBE and 6× EcRE as described in (Suhr et. al. 1998). Human 293 kidney cells, also referred to as HEK-293 cells, were sequentially infected with retroviral vectors encoding first the switch construct CVBE, and subsequently the reporter construct 6× EcRE Lac Z. The switch construct contained the coding sequence for amino acids 26-546 from Bombyx nori EcR (BE) (Iatrou) inserted in frame and downstream of the VP16 transactivation domain (VBE). A synthetic ATG start codon was placed under the control of cytomegalovirus (CVBE) immediate early promoter and flanked by long terminal repeats (LTR). The reporter-construct contained six copies of the ecdysone response element (EcRE) binding site placed upstream of LacZ and flanked on both sides with LTR sequences (6× EcRE).
Dilution cloning was used to isolate individual clones. Clones were selected using 450 μg/ml G418 and 100 ng/ml puromycin. Individual clones were evaluated based on their response in the presence and absence of test ligands.
Human 293 kidney cells stably transformed with CVBE and 6× EcRE lack were maintained in Minimum Essential Medium (Mediates, 10-010-CV) containing 10%.FBS (Life Technologies, 26140-087),[…] G418 (Mediates, 30-234-CR), and […] (Sigma, P-7255), at 37° C. in an atmosphere containing 5% CO2 and were subculture when they reached 75% confluence.
Z3 cells were seeded into 96-well tissue culture plates at a concentration of 2.5×10^3 cells per well and incubated at 37° C. in 5% CO2 for twenty-four hours. Stock solutions of ligands were prepared in DMSO. Ligand stock solutions were diluted 100.fold in media and 50 μL of this diluted ligand solution (33 μM) was added to cells.
Reporter gene expression was evaluated 48 hours after treatment of cells, β-galactosidase activity was measured using Gal Screen™ bioluminescent reporter gene assay system from Tropix (GSY1000).
Flanking both constructs are long terminal repeats, G418 and puromycin are selectable markers, CMV is the cytomegalovirus promoter, VBE is coding sequence for amino acids 26-546 from Bombyx mori EcR inserted downstream of the VP16 transactivation domain, 6× EcRE is six copies of the ecdysone response element, lacZ encodes for the reporter enzyme β-galactosidase.

SMILES | Fold Induction Average, AA_3T3V1 Assay 33 μM (Gal4DBD/AaEcR (DEF)) [fold] | Fold Induction Average, Z3V1 Assay 33 μM [1] [fold] | fold induction at 33 µM (Gal4DBD/AaEcR (DEF); NIH3T3, read-out: Fold Induction Average, AA_3T3V1 Assay 33 μM) | fold induction at 33 µM ([1]; HEK293, 48 h, read-out: Fold Induction Average, Z3V1 Assay 33 μM)
Cc1ccc(N[C@H]2C[C@H](C)N(C(=O)c3ccc(C)cc3)c3ccc(C)cc32)cc1 (relative stereo) [Compound I-87] | 250 | 1 | – | –
CCCC(=O)N1c2ccccc2C(N(C(=O)c2ccccc2)c2ccc(F)cc2)CC1C (stereo not drawn) [Compound I-126] | 1 | 1 | – | –
Cc1ccc(C(=O)N2c3ccccc3C(N(C(=O)c3ccc(F)cc3)c3ccccc3)CC2C)cc1 (stereo not drawn) [Compound I-143] | 27 | 1 | – | –
COC(=O)c1ccc(C(=O)N2c3ccc(F)cc3C(Nc3ccc(F)cc3)CC2C)cc1 (stereo not drawn) [Compound I-37] | 37 | 1 | – | –
COc1ccc(C(=O)N2c3ccc(C)cc3[C@@H](Nc3ccc(C)cc3)C[C@H]2C)cc1 (stereo in doubt) [Compound I-98, cis-2,6-dimethyl-1-(4-methoxybenzoyl)-4-(4-methylphenylamino)-1,2,3,4-tetrahydroquinoline] | – | – | 1 | 1
Cc1ccc(NC2CC(C)N(C(=O)c3ccnc(Cl)c3)c3ccc(C)cc32)cc1 (stereo not drawn) [Compound I-111] | 527 | 16 | – | –
C[C@H]1C[C@@H](Nc2ccc(F)cc2)c2cc(F)ccc2N1C(=O)c1ccc(F)c(C(F)(F)F)c1 (relative stereo) [Compound I-4] | 4 | 1 | – | –
C[C@H]1C[C@H](Nc2ccccc2)c2ccccc2N1C(=O)c1cccc(F)c1 (relative stereo) [Compound I-68] | 282 | 8 | – | –
C[C@H]1C[C@H](Nc2ccc(F)cc2)c2cc(F)ccc2N1C(=O)c1ccc(Cl)cc1 (relative stereo) [Compound I-65] | 345 | 82 | – | –
C[C@H]1C[C@H](Nc2ccccc2)c2ccccc2N1C(=O)c1ccccc1C(F)(F)F (relative stereo) [Compound I-69] | 2 | 1 | – | –
C[C@H]1C[C@@H](Nc2ccc(F)cc2)c2cc(F)ccc2N1C(=O)c1ccc(F)c(F)c1 (relative stereo) [Compound I-24] | 132 | 7 | – | –
C[C@H]1C[C@H](Nc2ccccc2)c2ccccc2N1C(=O)c1ccc(C(F)(F)F)cc1 (relative stereo) [Compound I-71] | 291 | 2 | – | –
CC1CC(Nc2ccc(F)cc2)c2cc(F)ccc2N1C(=O)c1ccc2c(c1)OCO2 (stereo not drawn) [Compound I-38] | 76 | 10 | – | –
Cc1ccc(C(=O)N2c3ccccc3C(Nc3ccc(Cl)cc3)CC2C)cc1 (mixture of isomers) [Compound I-43] | 114 | 3 | – | –
CC1CC(Nc2ccc(F)cc2)c2cc(F)ccc2N1C(=O)c1ccccc1F (stereo not drawn) [Compound I-55] | 78 | 10 | – | –
Cc1ccc(C(=O)N2c3ccccc3C(Nc3cccc(Cl)c3)CC2C)cc1 (mixture of isomers) [Compound I-42] | 80 | 1 | – | –
Cc1ccc(N[C@H]2C[C@H](C)N(C(=O)c3cccc(F)c3)c3ccc(C)cc32)cc1 (relative stereo) [Compound I-73] | 207 | 1 | – | –
C[C@H]1C[C@H](Nc2ccc(F)cc2)c2cc(F)ccc2N1C(=O)c1ccccc1C(F)(F)F (relative stereo) [Compound I-78] | 33 | 3 | – | –
C[C@H]1C[C@H](Nc2ccccc2)c2ccccc2N1C(=O)c1ccc(C(C)(C)C)cc1 (relative stereo) [Compound I-134] | 39 | 1 | – | –
CCc1ccc(C(=O)N2c3ccc(F)cc3C(Nc3ccc(F)cc3)CC2C)cc1 (stereo not drawn) [Compound I-36] | 113 | 33 | – | –
Cc1ccc(N[C@H]2C[C@H](C)N(C(=O)c3ccccc3)c3ccc(C)cc32)cc1 (relative stereo) [Compound I-72] | 114 | 1 | – | –
Cc1ccc(NC2CC(C)N(C(=O)c3ccc(Cl)c(F)c3)c3ccc(C)cc32)cc1 (stereo not drawn) [Compound I-110] | 782 | 2 | – | –
Cc1ccc(N[C@H]2C[C@H](C)N(C(=O)c3ccccc3C(F)(F)F)c3ccc(C)cc32)cc1 (relative stereo) [Compound I-74] | 22 | 1 | – | –
Cc1ccc(C(=O)N2c3ccccc3[C@H](Nc3ccccc3)C[C@@H]2C)cc1F (relative stereo) [Compound I-19] | 70 | 1 | – | –
CC1CC(Nc2ccccc2)c2ccccc2N1C(=O)c1ccc(Cl)cc1 (stereo not drawn) [Compound I-61] | 216 | 4 | – | –
Cc1ccc(N[C@H]2C[C@H](C)N(C(=O)c3ccc(F)c(F)c3)c3ccc(C)cc32)cc1 (relative stereo) [Compound I-21] | 52 | 1 | – | –
Cc1ccc(C(=O)N2c3ccc(F)cc3C(N(C(=O)c3ccc(C)c(F)c3)c3ccc(F)cc3)CC2C)cc1F (stereo not drawn) [Compound I-197] | 686 | 1 | – | –
